Data: patent EP2114888B1, “TRICYCLIC COMPOUNDS AND THEIR USE AS GLUCOCORTICOID RECEPTOR MODULATORS” (priority 2007, dated 2008)
Counter-ions that a name gives are not always drawn.

Assays:
[1] = tested on: TNFα; assay: LPS-stimulated TNFα production in differentiated U937 cells; type: cell-based, Human; details: for TNFα % Inhibition: U937 cells
Experimental: Human U937 pre-monocytic cells (American Type Culture Collection, Rockville, MD) were cultured in RPMI 1640 with glutamine (2 mM), penicillin-streptomycin (10 U/mL) and 10% heat-inactivated fetal bovine serum (all from Invitrogen, Grand Island, NY). Cells were differentiated to a monocyte/macrophage phenotype with phorbol 12-myristate 13-acetate (Sigma-Aldrich, St. Louis, MO), 20 ng/mL, overnight. The cells were then centrifuged, the medium aspirated, the cells resuspended in an equal volume of fresh RPMI 1640 medium with glutamine and penicillin-streptomycin and fetal bovine serum as listed above, and incubated for 48 hours at 37°C and with 5% CO2. Following recovery, the cells were scraped, counted, and plated in accordance to the experimental design prior to stimulation with LPS, as described below.
U937 cells were differentiated and plated at a density of 200,000 cells/well in 96-well plates. Cells were incubated with or without compound (vehicle was DMSO at 1% maximum concentration) for approximately one hour and then stimulated with 100 ng/mL lipopolysaccharide (LPS), E. coli serotype 0111:B4 (Sigma-Aldrich, St. Louis, MO) for four hours at 37°C and with 5% CO2. Cell supernatants were collected for determination of TNFα levels using an in-house sandwich-type ELISA. Mouse anti-human TNFα monoclonal antibody (clone 28401.111) and biotinylated goat anti-human TNFα (R&D Systems, Minneapolis, MN) were used as the capture and detection antibodies, respectively. Streptavidin-horseradish peroxidase (HRP) (R&D Systems, Minneapolis, MN) and K-Blue Substrate/Red Stop (Neogen, Lexington, KY) were used as the detection system. Absorbance was measured at 650 nm. TNFα concentrations were interpolated from a human TNFα recombinant protein (R&D Systems, Minneapolis, MN) standard curve using a four parameter logistics model by Magellan 4.11 data analysis software (Tecan, Durham, NC). […] Vehicle was used to define the 0% inhibition control. Percent inhibition for each concentration of compound, relative to these controls, was calculated using Excel (Microsoft, Redmond, WA). IC50 values were generated using LabStats Fit Curve V4.R7.MO data analysis software (Pfizer Sandwich Laboratories, UK and Tessella Support Services plc, Abingdon UK).

[2] = tested on: IL-6; assay: IL-1β-stimulated IL-6 production in A549 lung epithelial cells; type: cell-based, Human; details: A549 cells; Prednisolone (1 µM) = 100% inhibition control
Experimental: Human A549 lung epithelial cells (American Type Culture Collection, Rockville, MD) were cultured in Kaighn's F-12K medium with penicillin-streptomycin (10 U/mL) and 10% heat-inactivated fetal bovine serum (all from Invitrogen, Grand Island, NY). A549 cells were plated at a density of 30,000 cells/well in 96-well plates and incubated overnight at 37°C and with 5% CO2. The cells were serum-starved by replacing the growth medium with serum-free Kaighn's F-12K medium with penicillin-streptomycin (10 U/mL) and, again, incubating overnight at 37°C and with 5% CO2. On the third day, the medium was replaced with fresh serum-free medium and the cells were incubated with or without compound (vehicle was DMSO at 0.1 % maximum concentration) for approximately 1 hour and then stimulated with 1 ng/mL recombinant human IL-1β (R&D Systems, Minneapolis, MN) for 20 hours at 37°C and with 5% CO2. Cell supernatants were collected for determination of IL-6 levels using MSD (Meso Scale Discovery, Gaithersburg, MD) 96-well Single Spot plates as per the manufacturer's instructions. Plates were read with an MSD Sector Imager 6000. […] Percent inhibition for each compound concentration, relative to these controls, was calculated using Excel (Microsoft, Redmond, WA). IC50 values were generated using GraFit 5.0 data analysis software (Erithacus Software Ltd., Surrey, UK).

[3] = tested on: Mouse Collagen-induced arthritis (mCIA); assay: Therapeutic mouse collagen-induced arthritis (mCIA) model; type: in vivo, Male DBA/J mice; details: for Therapeutic mCIA (ED80 dose): dosing day 34 through day 49
Source text: Mouse Collagen-induced arthritis is a commonly used chronic, preclinical model of rheumatoid arthritis in which joint swelling and bone destruction occur following immunization with type II collagen. Reduction of disease incidence and severity has been shown previously to be predictive of disease-modification and signs and symptoms mitigation, respectively, in a clinical setting. In the therapeutic mCIA model, induction of disease incidence and severity was synchronized via LPS stimulation. Male DBA/J mice were immunized with 100 ug of bovine type II collagen (bCII) on day 0. […] Dosing of compounds was initiated in the therapeutic mode on day 34 and continued through day 49. Different treatments were compared by measuring the decrease in incidence (i.e., resolution of disease) and the decrease in severity of paw swelling over time.

[4] = tested on: TNFα; assay: LPS-induced serum TNFα suppression, 28-day repeat dose mouse model; type: in vivo, Swiss Webster female mice; details: for TNFα Suppression (ED80 dose): oral gavage, 28 days, LPS-induced serum TNFα
Experimental: (§1) The compounds were weighed and suspended in a vehicle of 0.5% methylcellulose/0.025% tween 20 (Sigma-Aldrich, St. Louis, MO). Compound suspensions were homogenized using a Polytron PT-3100 tissue homogenizer to create a very fine suspension and were then sonicated for 10 minutes using a water bath sonicator. Aliquots of each suspension were made for daily dosing at 0.2 ml/dose. Swiss Webster female mice, 10-12 weeks old, 28-29 grams, (Taconic, Germantown, NY) were used in accordance with the guidelines of the Institutional Animal Care and Use Committee and in accordance with NIH guidelines on laboratory animal welfare. Mice were acclimated in the Pfizer animal facility for three to seven days prior to being utilized in a study. […] Each treatment group contained 5-10 mice. To establish a dosing regimen for the studies, a pilot pharmacodynamic time course experiment was conducted to quantify TNFα repression after a single ED80 dose.
(§2) Body weights were measured on the first and last day of each experiment. Blood samples were obtained after three weeks of dosing for a steady-state pharmacokinetic (PK) analysis. To assess compound effects on LPS-induced TNFα, all mice received an intraperitoneal injection of LPS (Salmonella typhosa, L-7895; Sigma-Aldrich, St. Louis,) 2.5 hr after the last dose on day 28. Mice were sacrificed 90 minutes after LPS administration. Serum samples were quantified for osteocalcin and TNFα using the multiplex assays (Linco Research, Inc, St. Charles, MO; Luminex 100, Austin, TX). Samples were diluted 1:20 and the assay was run according to manufacturer's instructions. The osteocalcin standard was purchased separately (Biomedical Technologies Inc., Stoughton, MA). Mice were fasted for 4 hours before serum was collected for TNFα, and osteocalcin levels. For each experiment, outliers were detected by calculating the number of standard deviations from the mean of the group. If the value being examined was more than 2.5 standard deviations from the mean, it was excluded from the rest of the calculations.
(§3) The individual mouse percent inhibition values were fit to a four-parameter logistic model using the dose mean for each group.
(§4) ED50 and ED80 values were obtained for the various endpoints using a four-parameter logistic fit. For compounds which were tested multiple times, ED50 and ED80 values were obtained using four-parameter logistic fits of the combined data from multiple experiments.

[5] = Serum osteocalcin suppression, 28-day repeat dose mouse model; details: in vivo, po
Experimental: as §1, §2, §3, §4

[6] = tested on: osteocalcin; assay: as above; details: in vivo, po
Experimental: as §1, §2, §3, §4

[7] = Prednisolone (1 µM) = 100% inhibition control

Compound | IL-6 % Inhibition [2] | Therapeutic mCIA (ED80 dose) [3] | TNFα Suppression (ED80 dose) [4] | further results
Cc1ncccc1CNC(=O)c1ccc2c(c1)CC[C@@H]1C[C@@](O)(CCC(F)(F)F)CC[C@@]21Cc1ccccc1 [Comparator A, (4βS,7S,8αR)-4β-benzyl-7-hydroxy-N-((2-methylpyridin-3-yl)methyl)-7-(3,3,3-trifluoropropyl)-4β,5,6,7,8,8α,9,10-octahydrophenanthrene-2-carboxamide, reference compound] | 59.9% |  |  | TNFα % Inhibition [1, 7]: 35%
Cc1cnc(NC(=O)c2ccc3c(c2)CC[C@@H]2C[C@@](O)(C(F)(F)F)CC[C@@]32Cc2ccccc2)c(C)n1 [Comparator B, (4βS,7R,8αR)-4β-benzyl-N-(3,5-dimethylpyrazin-2-yl)-7-hydroxy-7-(trifluoromethyl)-4α,5,6,7,8,8α,9,10-octahydrophenanthrene-2-carboxamide] | 75.8% | >10 mg/kg | 2.91 mg/kg | 
Cc1ncccc1NC(=O)c1ccc2c(c1)CC[C@@H]1C[C@@](O)(CCC(F)(F)F)CC[C@@]21Cc1ccccc1 [Comparator C, (4βS,7S,8αR)-4β-benzyl-7-hydroxy-N-(2-methylpyridin-3-yl)-7-(3,3,3-trifluoropropyl)-4β,5,6,7,8,8α,9,10-octahydrophenanthrene-2-carboxamide] | 82.6% | >10 mg/kg | 1.33 mg/kg | 
Cc1ccncc1NC(=O)c1ccc2c(c1)CC[C@@H]1C[C@@](O)(C(F)(F)F)CC[C@@]21Cc1ccccc1 [Comparator D, (4βS,7R,8αR)-4β-benzyl-7-hydroxy-N-(4-methylpyridin-3-yl)-7-(trifluoromethyl)-4,5,6,7,8,8α,9,10-octahydrophenanthrene-2-carboxamide] | 79.8% |  | >20 mg/kg | 
Cc1ncccc1NC(=O)c1ccc2c(c1)C(=O)C[C@@H]1C[C@@](O)(C(F)(F)F)CC[C@@]21Cc1ccccc1 [Comparator E, (4βS,7R,8αS)-4β-benzyl-7-hydroxy-N-(2-methylpyridin-3-yl)-10-oxo-7-(trifluoromethyl)-4α,5,6,7,8,8α,9,10-octahydrophenanthrene-2-carboxamide] | 79.7% | 2.6 mg/kg | 1.18 mg/kg | 
Cc1ncccc1NC(=O)c1ccc2c(c1)[C@H](O)C[C@@H]1C[C@@](O)(C(F)(F)F)CC[C@@]21Cc1ccccc1 [Comparator F, (4βS,7R,8αR,10R)-4β-benzyl-7,10-dihydroxy-N-(2-methylpyridin-3-yl)-7-(trifluoromethyl)-4β,5,6,7,8,8α,9,10-octahydrophenanthrene-2-carboxamide] | 83.3% | >10 mg/kg | 5.67 mg/kg | 
Cc1ncccc1NC(=O)c1ccc2c(c1)CC[C@@H]1C[C@@](O)(C(F)F)CC[C@@]21Cc1ccccc1 [Comparator H, (4βS,7R,8αR)-4β-benzyl-7-(difluoromethyl)-7-hydroxy-N-(2-methylpyridin-3-yl)-4α,5,6,7,8,8α,9,10-octahydrophenanthrene-2-carboxamide] | 64.9% |  | 0.72 mg/kg | 
Cc1ncccc1NC(=O)c1ccc2c(c1)C=C[C@@H]1C[C@@](O)(C(F)(F)F)CC[C@@]21Cc1ccccc1 [Comparator I, (4βS,7R,8αS)-4β-benzyl-7-hydroxy-N-(2-methylpyridin-3-yl)-7-(trifluoromethyl)-4β,5,6,7,8,8α-hexahydrophenanthrene-2-carboxamide] | 67.5% | >20 mg/kg | 5.45 mg/kg | 
Cc1ncc(NC(=O)c2ccc3c(c2)CC[C@@H]2C[C@@](O)(CCC(F)(F)F)CC[C@@]32Cc2ccccc2)c(C)n1 [Comparator J, (4βS,7S,8αR)-4β-benzyl-N-(2,4-dimethylpyrimidin-5-yl)-7-hydroxy-7-(3,3,3-trifluoropropyl)-4β,5,6,7,8,8α,9,10-octahydrophenanthrene-2-carboxamide] | 55% | >20 mg/kg | 0.79 mg/kg | 
Cc1ncccc1NC(=O)c1ccc2c(c1)CC[C@@H]1C[C@@](O)(C(F)(F)F)CC[C@@]21Cc1ccccc1 [Example 1 HCL salt, (4βS,7R,8αR)-4β-benzyl-7-hydroxy-N-(2-methylpyridin-3-yl)-7-(trifluoromethyl)-4β,5,6,7,8,8α,9,10-octahydrophenanthrene-2-carboxamide] | 76.9% |  |  | TNFα % Inhibition [1, 7]: 77.1%; TNFα % Inhibition ([1]; additional result (footnote a)): 62%
C[C@]12C=CC(=O)C=C1CC[C@@H]1[C@@H]2[C@@H](O)C[C@@]2(C)[C@H]1CC[C@]2(O)C(=O)CO [Prednisolone, reference compound] |  |  |  | ED50 [5]: 1 mg/kg; Osteocalcin Suppression (ED80 dose) [6]: 6.80 mg/kg; inhibition at 1 µM ([1]; Homo sapiens, U-937, read-out: TNFα % Inhibition): 100%; ED80 ([3]; Mus musculus, read-out: Therapeutic mCIA (ED80 dose)): 5.5 mg/kg; ED80 ([4]; Mus musculus, po, 672 h, read-out: TNFα Suppression (ED80 dose)): 2.1 mg/kg
